Blank lines part the entries; values can stand above or below the molecule they belong to. Peptide text beside a SMILES is read from it. * marks the point of attachment. Cbz = O=C(OCc1ccccc1)*
What was measured:
c-Myc [1] = test: c-Myc accumulation after proteasome inhibition, immunoblot; assay type: cell-based, mouse; details: LPS-primed, 10 mM MG-132
Procedure: Raw264.7 or TLR4/MD2/CD14 293 cell lines were primed with 100 ng/ml^−1 LPS for 24 h and then treated with 1 mg/ml^−1 cycloheximide (Sigma-Aldrich; #C4859) for indicated time. Cells were harvested and subjected to immunoblot analysis by using anti-c-Myc antibody. Exposed films of immunoblot were scanned and quantified by ImageJ densitometry software. The intensity of each band was plotted in scatter plot and c-Myc half-life was determined on computed curve. Raw264.7 cells were primed with 100 ng/ml^−1 LPS for 24 h and then treated with 10 mM MG-132 for time indicated. C-Myc accumulation was reflected in immunoblot against c-Myc by short- and long-exposure. b-Actin and g-Tubulin were represented as loading controls.

H3K9me2 = test: ChIP analysis with anti-H3K9me2 antibody in BMDMs; assay type: cell-based, mouse; details: BMDMs treated prior to LPS stimulation; inhibitor pre-treated TL cells compared with NL
Procedure: (§1) ChIP experiments for studying histone modifiers and TFs were carried out in dual crosslinking way (Porro et al., 2007) with minor modifications. Cells were fixed using 2 mM DSG (disuccinimidyl glutarate, ProteomChem #c1104) for 45 min. Formaldehyde (1% v/v) was then added and incubated for 15 min. Crosslinking reactions were quenched by adding glycine to 0.1 M, followed by PBS washing. Cells were scraped and nuclei were pelleted by 0.5% NP-40 lysis buffer (50 mM pH 8.0 Tris-HCl, 85 mM KCl, 0.5% NP-40). The nuclear fraction was extracted with RIPA buffer (50 mM pH 8.0 Tris-HCl, 150 mM NaCl, 1 mM EDTA, 1% Triton-X-100, 0.1% SDS, 0.1% sodium deoxycholate) and sonicated to 200 to 1,000 bp DNA fragments, then incubated overnight with the antibody. The antibody complexes were linked to protein A/salmon sperm DNA beads (Cell Signaling, cat #9007) and washed thoroughly. The complexes were then eluted from the beads by 1% SDS, and incubated with NaCl to reverse the crosslinked products. Later, proteins were digested by protease-K and the released DNA was purified by QIAquick PCR purification Kit (Qiagen, cat #28104), and processed to quantitative PCR assay. ChIP experiments for studying histone post-PTMs were started from a one-step fixation of 1% (v/v) formaldehyde for 10 min, followed by the same steps as dual crosslinking ChIP described above.

HDAC1 = test: ChIP-PCR binding of HDAC1 to T-gene (IL6) promoter; assay type: cell-based, mouse; details: treated BMDMs during ET
Procedure: as §1

MTA1 = test: ChIP-PCR binding of MTA1 to T-class genes; assay type: cell-based, mouse; details: treated BMDMs
Procedure: as §1

H3K36me2 = test: immunoblot analysis of dimethylated H3K36; assay type: cell-based, mouse; details: treated vs non-treated BMDMs, TL
Procedure: (§2) Core histone proteins were prepared by Histone Purification Mini Kit (Active Motif; cat#40026). Adhered cells were washed with prewarmed serum-free media twice and were then harvested. The pellet was lysed with 1.5 ml extraction buffer per 2×10^7 cells and homogenized by repetitive pipetting. The cell lysate was processed under agitation for 2 h at 4° C. before the crude histone was clarified, neutralized and loaded onto the column. Histone proteins were purified by a C8 column and were precipitated by 4% perchloric acid according to the manufacturer's instructions and were resolved in HPLC water. All steps were processed on ice or in cold room, for the maximum preservation of histone modifications.

H3K27 = test: immunoblot analysis of methylated H3K27; assay type: cell-based, mouse; details: treated cells
Procedure: as §2

c-Myc [2] = test: ChIP-qPCR binding of c-Myc to gene loci; assay type: cell-based, mouse
Procedure: as §1

Raw264.7 cells = test: Clonogenic survival assay; assay type: cell-based, mouse; parameters: dose or concentration left out as unconfirmed
Procedure: Raw264.7 cells were counted and plated in six-well cell culture plates with 50, 100 and 200 viable cells in duplicated wells. Cells were primed with 100 ng/ml^−1 LPS for […] to reach the condition of ET and replenished with fresh media. […] After 9-day cell growth, cell colonies were washed with PBS, fixed with a mixture of methanol-acetic acid (3:1 in volume ratio) for 10 min, stained with 10% Giemsa (Ricca Chemical Company, Arlington, Tex., United States of America) for 30 min, gently washed with water and air dried. The colonies containing more than 20 cells were counted and the percentage of the survived cells under each condition was determined compared with the number of colonies on non-LPS or UNC0638-treated plates.

BMDM secretome = test: Label-free quantitative analysis of macrophage secretome; assay type: cell-based, mouse; details: BMDMs under TL pre-treated with 250 nM for 16 h
Procedure: Referring now to FIG. 1, cells were then either left unstimulated (N) or subjected to a single LPS challenge at 500 ng/ml^−1 for indicated hours (NL) or first primed with 100 ng/ml^−1 LPS to induce the ET for 24 h, followed by the second LPS challenge at 500 ng/ml^−1 for indicated hours (TL). Before the LPS challenge, cells were washed once and cultured in serum-free DMEM without phenolred, containing 1 mM sodium pyruvate and 10 mM L-glutamine. The secreted proteins were harvested and prepared (Meissner et al., 2013).
LFQ secretome analyses were performed via reversed phase LC-MS/MS using a Proxeon 1000 nano LC system coupled to an Q Exactive mass spectrometer (Thermo Scientific). […]
Label-free quantitation was based on the peak area (Cox et al., 2008; Gunawardena et al., 2013; Gunawardena et al., 2011; Porro et al., 2007). The measured area under the curve of m/z and retention time aligned extracted ion chromatogram (XIC) of a peptide was performed via the label-free quantitation module found in MaxQuant™ (vera 1.3.0.5) (Cox et al., 2008). All replicates (biological and technical replicates) of each experimental conditions: N, NL-16 h, TL-16 h, were included in the LFQ experimental design with protein-level quantitation and normalization performed using unique and razor peptide features corresponding to identifications filtered with a peptide FDR of 0.01 and protein FDR of 0.05. […]

G9a [3] = target: T1, G9a (Homo sapiens, UniProt Q96KQ7); details: Vedadi et al., 2011; cited from earlier work
T1 sequence (Q96KQ7 1-1210): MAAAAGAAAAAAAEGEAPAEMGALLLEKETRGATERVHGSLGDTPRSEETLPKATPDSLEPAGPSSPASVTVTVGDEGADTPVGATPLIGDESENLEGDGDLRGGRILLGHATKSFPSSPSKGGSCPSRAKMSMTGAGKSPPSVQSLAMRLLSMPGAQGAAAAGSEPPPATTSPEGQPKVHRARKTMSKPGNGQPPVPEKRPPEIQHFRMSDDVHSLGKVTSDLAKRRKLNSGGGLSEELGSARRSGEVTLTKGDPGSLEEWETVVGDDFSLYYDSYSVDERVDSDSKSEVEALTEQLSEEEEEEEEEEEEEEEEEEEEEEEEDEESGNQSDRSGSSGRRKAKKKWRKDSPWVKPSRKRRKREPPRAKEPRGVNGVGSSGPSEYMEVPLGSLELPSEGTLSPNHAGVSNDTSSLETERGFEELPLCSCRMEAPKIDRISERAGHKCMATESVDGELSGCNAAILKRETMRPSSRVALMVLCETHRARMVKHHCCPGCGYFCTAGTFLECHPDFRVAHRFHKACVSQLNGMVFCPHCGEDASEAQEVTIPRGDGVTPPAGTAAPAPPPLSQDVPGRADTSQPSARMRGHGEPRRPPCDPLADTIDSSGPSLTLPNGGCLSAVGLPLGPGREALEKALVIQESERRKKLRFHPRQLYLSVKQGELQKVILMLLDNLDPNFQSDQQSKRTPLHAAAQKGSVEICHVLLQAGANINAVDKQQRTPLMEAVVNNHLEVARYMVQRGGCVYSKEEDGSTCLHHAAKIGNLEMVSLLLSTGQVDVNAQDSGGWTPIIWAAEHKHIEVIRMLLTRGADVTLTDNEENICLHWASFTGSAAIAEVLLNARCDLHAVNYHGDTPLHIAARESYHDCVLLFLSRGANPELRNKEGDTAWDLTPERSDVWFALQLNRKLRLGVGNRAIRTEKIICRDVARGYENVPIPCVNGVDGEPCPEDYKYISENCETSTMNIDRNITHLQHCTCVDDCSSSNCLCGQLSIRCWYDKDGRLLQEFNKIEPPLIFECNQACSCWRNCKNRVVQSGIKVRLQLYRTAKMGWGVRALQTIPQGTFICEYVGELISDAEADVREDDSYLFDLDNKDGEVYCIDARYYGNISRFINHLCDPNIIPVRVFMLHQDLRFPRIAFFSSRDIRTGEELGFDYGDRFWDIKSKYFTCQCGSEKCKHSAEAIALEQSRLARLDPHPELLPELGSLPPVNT

G9a [4] = test: ChIP abundance of G9a within T-class promoters; assay type: cell-based, mouse; details: pre-treated TL cells
Procedure: as §1

SMILES: CC(C)C[C@@H](C=O)NC(=O)[C@H](CC(C)C)NC(=O)[C@H](CC(C)C)NC(=O)OCc1ccccc1 [MG-132] (Cbz-Leu-Leu-Leu-aldehyde)
- c-Myc level with post-treatment time (c-Myc [1]; G9a-KD Raw264.7 cells): progressive accumulation
- c-Myc level with longer post-treatment time (c-Myc [1]; wild-type Raw264.7 cells (presence of G9a)): reduced

- IL6-specific binding of HDAC1 (HDAC1): diminished
- TL-specific binding of MTA1 to T-class genes (MTA1): diminished
- c-Myc binding to the NT-genes (c-Myc [2]): not affected
- c-Myc binding to the loci of IL6 (c-Myc [2]; treated BMDMs under TL): diminished
- c-Myc binding to IL6, IP-10 and p21 (c-Myc [2]; under TL): reduced
SMILES: COc1cc2c(NC3CCN(C(C)C)CC3)nc(C3CCCCC3)nc2cc1OCCCN1CCCC1 [UNC0638, 2-Cyclohexyl-N-(1-isopropylpiperidin-4-yl)-6-methoxy-7-(3-(pyrrolidin-1-yl)propoxy) quinazolin-4-amine]
- change in H3K9me2 (ChIP) (H3K9me2): greater decreases
- level of H3K36me2 (H3K36me2): decreased
- methylated level of H3K27 (H3K27): reduced
- percentage of survived cells (Raw264.7 cells; cells under TL, 9-day growth): significantly reduced
- percentage of survived cells (Raw264.7 cells; non-treated (non-LPS) wild-type cells): little effect
- share of 992 identified proteins showing repressed releases whose secretion levels increased (BMDM secretome): 45%
- change in abundance of G9a (G9a [3]): little change

SMILES: O=C(CCCCCCC(=O)Nc1ccccc1)NO [SAHA]
- abundance of G9a within the T-class promoters (G9a [4]): reduced

Reference: US20170168067A1, “CHROMATIN-ACTIVITY-BASED CHEMOPROTEOMIC (CHAC) METHODS AND SYSTEMS FOR DISEASE MARKER DISCOVERY AND DEVELOPMENT” (The University of North Carolina at Chapel Hill, priority 2014, published 2017)
